The values that follow are results of earlier work, collected in patent US20250213514A1, “STABLE, LIQUID PHARMACEUTICAL COMPOSITIONS COMPRISING MELPHALAN” (GOOD HEALTH, LLC, priority 2022, published 2025).

Where two headings read alike, the source gives them in different places.

Take `N[C@@H](Cc1ccc(N(CCCl)CCCl)cc1)C(=O)O` [Melphalan]: the Solubility result is on record as “slightly soluble” (in ethanol, methanol); “soluble” (in propylene glycol and dilute mineral acids); “practically insoluble” (in water, chloroform, and ether).
